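Results reflect a 48-hour exposure of cells in 96-well plates to compound at five concentrations. At the GI50, growth is halved.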 Calls of active or inactive are those of the source. No stated cut-off is given here; in the data, active = GI50 up to about 1.1 µM and inactive = higher.
What was measured:
Experiment in all cases: growth of human tumour cells (NCI), 48 h
786-0 = tested on: 786-0
SK-OV-3 = tested on: SK-OV-3
UO-31 = tested on: UO-31
SK-MEL-28 = tested on: SK-MEL-28
KM12 = tested on: KM12
UACC-62 = tested on: UACC-62
NCI-H23 = tested on: NCI-H23
TK-10 = tested on: TK-10
SF-268 = tested on: SF-268
RPMI-8226 = tested on: RPMI-8226
SF-295 = tested on: SF-295
HT-29 = tested on: HT-29
NCI-H522 = tested on: NCI-H522
HOP-92 = tested on: HOP-92
OVCAR-3 = tested on: OVCAR-3
HCC 2998 = tested on: HCC 2998

Measured: GI50

O=C(CSc1nnc(-c2ccc(/N=C\c3ccc(Cl)cc3)cc2)o1)Nc1cccc(Cl)c1
inactive: 786-0 > 100 µM | SK-OV-3 > 100 µM | UO-31 > 100 µM | SK-MEL-28 > 100 µM | KM12 > 100 µM | UACC-62 > 100 µM | NCI-H23 > 100 µM | TK-10 > 100 µM | SF-268 > 100 µM | RPMI-8226 70 µM | SF-295 > 100 µM | HT-29 > 100 µM | NCI-H522 36.1 µM

Cn1nc(-c2ccccc2)c(C(=O)/C=C/c2ccccc2)c(N2CCOCC2)c1=O
inactive: 786-0 14.2 µM | SK-OV-3 27.6 µM | UO-31 14.9 µM | SK-MEL-28 > 10 µM | UACC-62 19.8 µM | NCI-H23 16.4 µM | TK-10 32.8 µM | SF-268 16.9 µM | HOP-92 5.06 µM | RPMI-8226 14.6 µM | HT-29 17.7 µM | NCI-H522 12.9 µM

O=C(O)C(=O)/C=C\c1ccc(Cl)cc1
inactive: 786-0 > 100 µM | SK-OV-3 > 100 µM | UO-31 > 100 µM | OVCAR-3 > 100 µM | SK-MEL-28 > 100 µM | KM12 > 100 µM | UACC-62 > 100 µM | NCI-H23 > 100 µM | HCC 2998 > 100 µM | TK-10 > 100 µM | SF-268 > 100 µM | HOP-92 80.9 µM | RPMI-8226 > 100 µM | SF-295 > 100 µM | HT-29 > 100 µM | NCI-H522 > 100 µM

CCC1(N=[N+]=[N-])C(=O)c2ccccc2N(c2ccccc2)C1=O (configuration not stated)
inactive: 786-0 > 100 µM | SK-OV-3 > 100 µM | UO-31 > 100 µM | OVCAR-3 > 100 µM | SK-MEL-28 > 100 µM | KM12 > 100 µM | UACC-62 > 100 µM | NCI-H23 > 100 µM | HCC 2998 > 100 µM | TK-10 > 100 µM | SF-268 > 100 µM | HOP-92 > 100 µM | SF-295 > 100 µM | HT-29 > 100 µM | NCI-H522 > 100 µM

CCOC(=O)NC(=O)c1cn(CCN2CCN(C(=O)NCCCCCCNC(=O)N3CCN(CCn4cc(C(=O)NC(=O)OCC)c(=O)n(CCN(CC)CC)c4=O)CC3)CC2)c(=O)n(CCC(CC)CC)c1=O
inactive: 786-0 > 100 µM | SK-OV-3 > 100 µM | UO-31 > 100 µM | OVCAR-3 > 100 µM | SK-MEL-28 > 100 µM | KM12 > 100 µM | UACC-62 > 100 µM | NCI-H23 > 100 µM | HCC 2998 > 100 µM | TK-10 > 100 µM | SF-268 > 100 µM | HOP-92 > 100 µM | RPMI-8226 > 100 µM | SF-295 > 100 µM | HT-29 > 100 µM | NCI-H522 > 100 µM

Reference: ChEMBL document CHEMBL1201862, “PubChem BioAssay data set” (2004)
